Measurements from US5925639A, “Keto amide derivatives useful as farnesyl protein transferase inhibitors” (Schering Corporation, priority 1997, dated 1999).

How the values were obtained:
[1] = biological target: farnesyl protein transferase (Homo sapiens, UniProt P49354+P49356); assay: FPT IC50 (inhibition of farnesyl protein transferase, in vitro enzyme assay); format: biochemical
Method: (§1) FPT IC50 (inhibition of farnesyl protein transferase, in vitro enzyme assay), COS Cell IC50 (Cell-Based Assay), GGPT IC50 (inhibition of geranylgeranyl protein transferase, in vitro enzyme assay), Cell Mat Assay, and anti-tumor activity (in vivo anti-tumor studies) are determined by the assay procedures described in WO 95/10516.

COS Cell = COS Cell IC50 (Cell-Based Assay)
Method: as §1

SMILES	IC50 [1] [nM]	IC50 (COS Cell) [nM]
O=C(C(=O)N1CCC([C@H]2c3ncc(Br)cc3CCc3cc(Cl)cc(Br)c32)CC1)c1ccccc1 [Example 2]	65	
CC(=O)CCC(=O)N1CCC([C@H]2c3ncc(Br)cc3CCc3cc(Cl)cc(Br)c32)CC1 [Example 3]	3.4	54
CC(=O)C(=O)N1CCC([C@H]2c3ncc(Br)cc3CCc3cc(Cl)cc(Br)c32)CC1 [Example 6]	46	
O=C(/C(=N\O)c1ccccc1)N1CCC([C@H]2c3ncc(Br)cc3CCc3cc(Cl)cc(Br)c32)CC1 [Example 9]	> 150	
O=C(CC/C(=N\O)c1ccccc1)N1CCC([C@H]2c3ncc(Br)cc3CCc3cc(Cl)cc(Br)c32)CC1 [Example 10]	4.7	
CO/N=C(\CCC(=O)N1CCC([C@H]2c3ncc(Br)cc3CCc3cc(Cl)cc(Br)c32)CC1)c1ccccc1 [Example 11]	88	

Further lines, with some results ahead:

IC50 [1] [nM]	SMILES	IC50 (COS Cell) [nM]
21	O=C(CCC(=O)N1CCC([C@H]2c3ncc(Br)cc3CCc3cc(Cl)cc(Br)c32)CC1)c1ccccc1 [Example 1]	
7.6	CC(=O)CCCC(=O)N1CCC([C@H]2c3ncc(Br)cc3CCc3cc(Cl)cc(Br)c32)CC1 [Example 4]	10
9.2	CC(=O)CC(=O)CCC(=O)N1CCC([C@H]2c3ncc(Br)cc3CCc3cc(Cl)cc(Br)c32)CC1 [Example 5]	175
11	C/C(CCC(=O)N1CCC([C@H]2c3ncc(Br)cc3CCc3cc(Cl)cc(Br)c32)CC1)=N/O [Example 7]	
4.9	C/C(CCC(=O)N1CCC([C@H]2c3ncc(Br)cc3CCc3cc(Cl)cc(Br)c32)CC1)=N\O [Example 8]	52
9.7	CC(CCC(=O)N1CCC([C@H]2c3ncc(Br)cc3CCc3cc(Cl)cc(Br)c32)CC1)=NNC(N)=O [Example 12]	
6.9	CC(CCC(=O)N1CCC([C@H]2c3ncc(Br)cc3CCc3cc(Cl)cc(Br)c32)CC1)=NNC(=O)C(N)=O [Example 13]	
